Among the data in patent publication US20260317313A1, “DNA Polymerase Theta Inhibitors Containing Non-Saturated 5-Membered Heterocyclic Rings and Use Thereof” (Thomas Jefferson University, priority 2022, published 2026) are IC50 values, retold here.

SMILES strings stand for the structures.

The first assay concerns the target T1, recombinant human Polq polymerase domain (residues 1792-2590) (Homo sapiens, UniProt O75417).
T1 sequence (O75417 1792-2590): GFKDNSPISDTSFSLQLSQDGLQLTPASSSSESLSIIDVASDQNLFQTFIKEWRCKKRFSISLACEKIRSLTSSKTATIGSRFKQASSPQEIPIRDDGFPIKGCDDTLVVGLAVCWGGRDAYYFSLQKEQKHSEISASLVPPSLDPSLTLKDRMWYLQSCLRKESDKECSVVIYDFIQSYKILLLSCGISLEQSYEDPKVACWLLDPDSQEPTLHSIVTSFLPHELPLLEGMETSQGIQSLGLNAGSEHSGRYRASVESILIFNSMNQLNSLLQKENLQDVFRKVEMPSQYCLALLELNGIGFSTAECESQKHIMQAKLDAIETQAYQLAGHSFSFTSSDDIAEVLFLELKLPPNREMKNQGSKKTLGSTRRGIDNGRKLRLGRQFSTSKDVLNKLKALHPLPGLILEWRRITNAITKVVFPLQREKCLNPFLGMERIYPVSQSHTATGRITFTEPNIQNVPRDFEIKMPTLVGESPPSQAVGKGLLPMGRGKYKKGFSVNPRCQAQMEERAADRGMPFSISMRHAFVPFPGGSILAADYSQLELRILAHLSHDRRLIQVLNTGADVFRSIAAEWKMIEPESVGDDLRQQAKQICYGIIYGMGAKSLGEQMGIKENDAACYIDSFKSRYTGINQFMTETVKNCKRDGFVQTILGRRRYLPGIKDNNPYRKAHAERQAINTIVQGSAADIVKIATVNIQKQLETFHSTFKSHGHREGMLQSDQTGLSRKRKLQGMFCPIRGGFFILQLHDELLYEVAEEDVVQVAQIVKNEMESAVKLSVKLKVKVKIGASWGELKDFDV
The assay can be described thus: Cy5 fluorescence assay of Polq polymerase enzymatic activity. It counts as biochemical. The settings on record: 5 nM Polq polymerase domain, 60 nM primer-template, 50 uM dNTPs, 37° C., 18 min, 2.5% DMSO, triplicate. Here is the method:
The following Cy5 fluorescence assay was used to measure the ability of compounds to inhibit Polq polymerase domain in vitro. The fluorescent based assay was performed as follows: 60 nM of the pre-annealed primer-template containing a 5′ Cy5 fluorophore conjugated template strand (SEQ ID NO 6: 5′-/5Cy5/ […] GGACAG-3′), a downstream complementary oligo conjugated with a 3′ Blackhole quencher (SEQ ID NO 7: 5′-CTAAGCTCACAGTG/3IAbRQSp/-3′) and a primer strand (SEQ ID NO 8: 5′-CTGTCCTGCATGATG-3′) was mixed with 50 uM 2′-deoxyribonucleoside triphosphates (dNTPs), 0.1 mg/mL Bovine serum albumin (BSA), 0.01% NP-40, 10% glycerol, 1 mM dithiothreitol (DTT), 10 mM MgCl2, 25 mM TrisHCl pH 7.8 in the presence of 2.5% DMSO with or without various concentrations (7-point dilution series) of Polq small molecule inhibitors represented by Formula I at 37° C. in a volume of 40 μL.
For orientation: IC50 means the concentration needed to halve the response being measured. For `CN(C(=O)Oc1c(-c2cn(CCO)nn2)cc(C(F)(F)F)cc1C(F)(F)F)c1ccc(F)cc1` [Example 1], the IC50 was determined as 4.8 nM.

Still in this assay, the particulars now being: 5 nM Polq polymerase domain, 60 nM primer-template, 50 uM dNTPs, 37° C., 18 min, 2.5% DMSO, triplicate; read-out: Polq IC50.
On to `CN(C(=O)Oc1c(-c2cn(C3CC(O)C3)nn2)cc(C(F)(F)F)cc1C(F)(F)F)c1ccc(F)cc1` (stereo not drawn) [Example 17, 2-[1-(3-hydroxycyclobutyl)-1H-1,2,3-triazol-4-yl]-4,6-bis(trifluoromethyl)phenyl N-(4-fluorophenyl)-N-methylcarbamate], for which the IC50 came to 1.5 nM.
With `CC(C)(C)OC(=O)n1ccn(-c2cc(C(F)(F)F)cc(C(F)(F)F)c2OC(=O)N(CC#N)c2ccc(F)cc2)c1=O` [Example 19, tert-butyl 3-(2-{[(cyanomethyl)(4-fluorophenyl)carbamoyl]oxy}-3,5-bis(trifluoromethyl)phenyl)-2-oxo-2,3-dihydro-1H-imidazole-1-carboxylate], the IC50 was 295 nM.

The assay is the same for the next values; noted with them: Polq IC50, 5 nM Polq polymerase domain, 60 nM primer-template, 50 uM dNTPs, 37° C., 18 min, 2.5% DMSO, triplicate.
As for `[2H]C([2H])([2H])N(C(=O)Oc1c(-c2cn(C3C[C@@H](O)[C@@H](O)C3)nn2)cc(C(F)(F)F)cc1C(F)(F)F)c1ccc(F)cc1` (mixture of isomers) [Example 12, 2-{1-[(3R,4S)-3,4-dihydroxycyclopentyl]-1H-1,2,3-triazol-4-yl}-4,6-bis(trifluoromethyl)phenyl N-(4-fluorophenyl)-(methyl-d3)carbamate (Racemate)], the IC50 was determined as 2.2 nM.
Same read-out and setting: in the case of `[2H]C([2H])([2H])N(C(=O)Oc1c(-c2cn(C3C[C@@H](O)[C@@H](O)C3)nn2)cc(C(F)(F)F)cc1C(F)(F)F)c1ccc(F)cc1` (mixture of isomers) [Example 13, 2-{1-[(3R,4S)-3,4-dihydroxycyclopentyl]-1H-1,2,3-triazol-4-yl}-4,6-bis(trifluoromethyl)phenyl N-(4-fluorophenyl)-(methyl-d3)carbamate (Racemate)] it was 4.6 nM; in that of `CN(C(=O)Oc1c(-n2cc[nH]c2=O)cc(C(F)(F)F)cc1C(F)(F)F)c1ccc(F)cc1` [Example 2, 2-(2-oxo-2,3-dihydro-1H-imidazol-1-yl)-4,6-bis(trifluoromethyl)phenyl N-(4-fluorophenyl)-N-methylcarbamate], 4 nM; in that of `CN(C(=O)Oc1c(-c2cn(CCCCC(=O)Nc3cccc4c3C(=O)N(C3CCC(=O)NC3=O)C4=O)nn2)cc(C(F)(F)F)cc1C(F)(F)F)c1ccc(F)cc1` (stereo not drawn) [Example 3, 2-(1-(5-((2-(2,6-dioxopiperidin-3-yl)-1,3-dioxoisoindolin-4-yl)amino)-5-oxopentyl)-1H-1,2,3-triazol-4-yl)-4,6-bis(trifluoromethyl)phenyl (4-fluorophenyl) (methyl)carbamate], 3.3 nM.
For the compound `CN(C(=O)Oc1c(-c2cn(CCCCCC(=O)Nc3cccc4c3C(=O)N(C3CCC(=O)NC3=O)C4=O)nn2)cc(C(F)(F)F)cc1C(F)(F)F)c1ccc(F)cc1` (stereo not drawn) [Example 4, 2-(1-(6-((2-(2,6-dioxopiperidin-3-yl)-1,3-dioxoisoindolin-4-yl)amino)-6-oxohexyl)-1H-1,2,3-triazol-4-yl)-4,6-bis(trifluoromethyl)phenyl (4-fluorophenyl) (methyl)carbamate], the IC50 is 5.5 nM.
Turning to `CN(C(=O)Oc1c(-c2cn(CCOCC(=O)Nc3cccc4c3C(=O)N(C3CCC(=O)NC3=O)C4=O)nn2)cc(C(F)(F)F)cc1C(F)(F)F)c1ccc(F)cc1` (stereo not drawn) [Example 5, 2-(1-(2-(2-((2-(2,6-dioxopiperidin-3-yl)-1,3-dioxoisoindolin-4-yl)amino)-2-oxoethoxy)ethyl)-1H-1,2,3-triazol-4-yl)-4,6-bis(trifluoromethyl)phenyl (4-fluorophenyl) (methyl)carbamate], the IC50 was found to be 4.6 nM.
As for `CN(C(=O)Oc1c(-c2cn(CCOCCOCC(=O)Nc3cccc4c3C(=O)N(C3CCC(=O)NC3=O)C4=O)nn2)cc(C(F)(F)F)cc1C(F)(F)F)c1ccc(F)cc1` (stereo not drawn) [Example 6, 2-(1-(2-(2-(2-((2-(2,6-dioxopiperidin-3-yl)-1,3-dioxoisoindolin-4-yl)amino)-2-oxoethoxy)ethoxy)ethyl)-1H-1,2,3-triazol-4-yl)-4,6-bis(trifluoromethyl)phenyl (4-fluorophenyl)(methyl)carbamate], the IC50 came out at 4 nM.
Consider `CN(C(=O)Oc1c(-c2cn(CCCCCCCCC(=O)Nc3cccc4c3C(=O)N(C3CCC(=O)NC3=O)C4=O)nn2)cc(C(F)(F)F)cc1C(F)(F)F)c1ccc(F)cc1` (stereo not drawn) [Example 7, 2-(1-(9-((2-(2,6-dioxopiperidin-3-yl)-1,3-dioxoisoindolin-4-yl)amino)-9-oxononyl)-1H-1,2,3-triazol-4-yl)-4,6-bis(trifluoromethyl)phenyl (4-fluorophenyl) (methyl)carbamate], for which the IC50 came out at 5.8 nM.
On the same count and under the same terms, under `CN(C(=O)Oc1c(-c2cn(CCOCCOCCOCCOCC(=O)Nc3cccc4c3C(=O)N(C3CCC(=O)NC3=O)C4=O)nn2)cc(C(F)(F)F)cc1C(F)(F)F)c1ccc(F)cc1` (stereo not drawn) [Example 8, 2-(1-(14-((2-(2,6-dioxopiperidin-3-yl)-1,3-dioxoisoindolin-4-yl)amino)-14-oxo-3,6,9,12-tetraoxatetradecyl)-1H-1,2,3-triazol-4-yl)-4,6-bis(trifluoromethyl)phenyl (4-fluorophenyl) (methyl)carbamate] stands 4.2 nM.
In the case of `[2H]C([2H])([2H])N(C(=O)Oc1c(-n2cc[nH]c2=O)cc(C(F)(F)F)cc1C(F)(F)F)c1ccc(F)c(Cl)c1F` [Example 9, 2-(2-oxo-2,3-dihydro-1H-imidazol-1-yl)-4,6-bis(trifluoromethyl)phenyl 3-chloro-2,4-difluorophenyl(methyl-d3)carbamate], the IC50 is 2.4 nM.
For `[2H]C([2H])([2H])N(C(=O)Oc1c(-n2cc[nH]c2=O)cc(C(F)(F)F)cc1C(F)(F)F)c1ccc(F)cc1` [Example 10, 2-(2-oxo-2,3-dihydro-1H-imidazol-1-yl)-4,6-bis(trifluoromethyl)phenyl 4-fluorophenyl(methyl-d3)carbamate], the IC50 was found to be 2.9 nM.
For the compound `CN(C(=O)Oc1c(-c2cn(C3CC(O)C3)nn2)cc(C(F)(F)F)cc1C(F)(F)F)c1ccc(F)cc1` (stereo not drawn) [Example 11, 2-[1-(3-hydroxycyclobutyl)-1H-1,2,3-triazol-4-yl]-4,6-bis(trifluoromethyl)phenyl N-(4-fluorophenyl)-N-methylcarbamate], the IC50 stood at 2 nM.
Turning to `CN(C(=O)Oc1c(-c2cn(CC3(O)CNC3)nn2)cc(C(F)(F)F)cc1C(F)(F)F)c1ccc(F)cc1` [Example 14, 2-{1-[(3-hydroxyazetidin-3-yl)methyl]-1H-1,2,3-triazol-4-yl}-4,6-bis(trifluoromethyl)phenyl N-(4-fluorophenyl)-N-methylcarbamate], the IC50 is 2.3 nM.
Take `[2H]C([2H])([2H])N(C(=O)Oc1c(-c2cn(CC3(O)CNC3)nn2)cc(C(F)(F)F)cc1C(F)(F)F)c1ccc(F)cc1` [Example 15, 2-{1-[(3-hydroxyazetidin-3-yl)methyl]-1H-1,2,3-triazol-4-yl}-4,6-bis(trifluoromethyl)phenyl N-(4-fluorophenyl)-N-(methyl-d3)carbamate]: the IC50 stood at 1.9 nM.
Consider `[2H]C([2H])([2H])N(C(=O)Oc1c(-c2cn(CC3(O)CNC3)nn2)cc(C(F)(F)F)cc1C(F)(F)F)c1ccc(F)c(Cl)c1F` [Example 16, 2-{1-[(3-hydroxyazetidin-3-yl)methyl]-1H-1,2,3-triazol-4-yl}-4,6-bis(trifluoromethyl)phenyl N-(3-chloro-2,4-difluorophenyl)-N-(methyl-d3)carbamate], for which the 50% inhibitory concentration (IC50) was found to be 1.5 nM.
